Legend:
[1] = system: formalin-induced ocular pain (blinking); assay: formalin-induced model of ocular pain in the rat (inhibition of blinking after topical ocular dosing); settings: in vivo
[2] = system: mu opioid receptor (vs delta and kappa receptors); settings: Goodman and Gilman, 8th Edition; cited from earlier work

Row | Structure (SMILES) | % Inhibition (of blink count in first minute vs vehicle) [1] | times greater affinity for the mu receptor than for the delta and kappa receptors [2]
1 | COC(=O)N1CCN(C(=O)Cc2ccc(Cl)c(Cl)c2)C(CN2CCCC2)C1 (racemic) [GR 89696] | 98 | 
2 | CN1CC[C@]23c4c5ccc(O)c4O[C@H]2[C@@H](O)C=C[C@H]3[C@H]1C5 [Morphine] | 8 | ten

From US6191126A, “Topical use of κ opioid agonists to treat ocular pain” (Alcon Laboratories, Inc., priority 1999, dated 2001)
